The values below come from the Deep4Chem optical property database.

The nature of this data set: solvent given as SMILES.

With `CCCCC(CC)COc1cc(OCC(CC)CCCC)c2c#cc3ccc4sc5ccc(c#cc6cc(c#cc7ccc8sc9ccc(c#cc1c2)cc9c8c7)c(C(CCCC)OCCC)cc6C(CCCC)OCCC)cc5c4c3` (stereo unspecified), the absorption maximum (in ClCCl) came to 333 nm.

For the molecule `CC1=CC(C)=[N+]2C1=C(c1ccccc1)c1c(C)cc(/C=C/c3ccccc3)n1[B-]2(F)F`, the absorption maximum (in CC#N) was found to be 560 nm.

With `O=c1oc2cccc3c4cccc5ccc6c7cc(F)ccc7c1c(c23)c6c54`, under “in C1CCOC1”, the absorption maximum is on record as 411 nm.

Under “in Cc1ccccc1”, `CC(C)(C)c1cc2c(c(C(C)(C)C)c1)O[B-](F)(F)[n+]1c-2nc(-c2ccccc2)c2cc(Cl)ccc21` yielded an absorption maximum of 420 nm.

Under “in ClC(Cl)Cl”, `Cc1ccccc1Oc1ccc2c3c(cccc13)C(=O)N(CCO)C2=O` yielded an absorption maximum of 355 nm.

As for `N#Cc1ccc(/C=C2\C=C(c3ccccc3)NC2=O)cc1`, for the setting “in C1COCCO1”, the absorption maximum is 438 nm.

Consider `CC(C)c1cccc(C(C)C)c1-n1c(=O)c2ccc3c4ccc5c(=O)n(-c6c(C(C)C)cccc6C(C)C)c(=O)c6cc7c(-c8ccccn8)nc8cc(c1=O)c2c3c8c7c4c56`, for which the absorption maximum (in ClC(Cl)Cl) was 474 nm.

Regarding `c1ccc(-c2cc(-c3ccc(N4c5ccccc5C(c5ccccc5)(c5ccccc5)c5ccccc54)cn3)nc(-c3ccccc3)n2)cc1`, where the note is “in Cc1ccccc1”, the absorption maximum stood at 378.85 nm.

On to `CC(C)c1cccc(C(C)C)c1N1C(=O)c2cccc3c(Oc4ccc(Cl)cc4)ccc(c23)C1=O`, for which the absorption maximum (in ClCCl) was found to be 360 nm.

In turn, `C(=C\c1ccc(N(c2ccccc2)c2ccccc2)cc1)/c1ccc(-c2ccc(/C=C/c3ccc(N(c4ccccc4)c4ccccc4)cc3)cc2)cc1` registered an absorption maximum (in ClCCl) of 398 nm.

Molecule `N#Cc1c(/C=C/c2ccc(N(c3ccccc3)c3ccccc3)cc2)cc(-c2cccs2)cc1N1CCCCC1` returned an absorption maximum (in CS(C)=O) of 404 nm.

For `CC(C)C1=c2c(c3[nH]cc(C(C)C)c3c3ccccc23)=[N+]2C1=Cc1c(C(C)C)c3c4ccccc4c4c(C(C)C)c[nH]c4c3n1[B-]2(F)F`, the absorption maximum (in ClC(Cl)Cl) worked out at 727 nm.

On to `CCCCCCCCn1c(=O)c2cc3c(C#Cc4ccc(N(c5ccccc5)c5ccccc5)cc4)c4cc5c(=O)n(CCCCCCCC)c(=O)c5cc4c(C#Cc4ccc(N(c5ccccc5)c5ccccc5)cc4)c3cc2c1=O`, for which, for the setting “in ClC(Cl)Cl”, the absorption maximum is 582 nm.

Molecule `O=Cc1ccc(C#CC(C#Cc2ccc(C=O)s2)=Cc2ccc(C=C(C#Cc3ccc(C=O)s3)C#Cc3ccc(C=O)s3)s2)s1` showed an absorption maximum (in ClC(Cl)Cl) of 524 nm.

The molecule `COc1ccc(/C=C/c2ccccc2)cc1OC` yielded an absorption maximum (in CC#N) of 321 nm.

In the case of `CCC1=C(C)C2=Cc3cc(I)c(I)n3[B-](F)(F)[N+]2=C1C`, the absorption maximum is recorded as 542 nm (in C1CCCCC1); 524.5 nm (in CC(C)=O); 529 nm (in CCO); 528 nm (in CCOC(C)=O); 526.5 nm (in CO); 520 nm (in OCC(F)(F)F).

With `Brc1ccc(N/C=C/C=[NH+]c2ccc(Br)cc2)cc1`, the absorption maximum (in CS(C)=O) was determined as 386 nm.

Where the note is “in ClCCl”, `CCCCCCOc1cc(N(CC)CC)ccc1/C=C/C(=C(C#N)C#N)c1ccc2c(c1)c1ccccc1n2CC` had an absorption maximum of 504 nm.

In the case of `Cc1ccc(-c2cc(C)[o+]c(C)c2)cc1`, the absorption maximum runs as follows: (in CC#N) 347 nm; (in ClCCl) 365 nm.

Consider `N#CC(C#N)=Cc1cn(-c2ccccc2)nc1-c1ccc([N+](=O)[O-])cc1`, for which the absorption maximum was determined as 346 nm (in C1CCOC1); 346 nm (in C1COCCO1); 346 nm (in CCO); 346 nm (in CCOC(C)=O); 347 nm (in CN(C)C=O); 345 nm (in CO). Further, the absorption maximum stood at 343 nm (in CS(C)=O), 356 nm (in Cc1ccccc1) and 352 nm (in ClC(Cl)Cl).

Regarding `COc1cc(OC)cc(C2=[O+][B-](F)(F)OC(c3ccccc3)=C2)c1`, the absorption maximum (in ClCCl) is reported as 369 nm.

With `CCCCn1c(=O)c2cc3ccc4cccc5ccc(c2c1=O)c3c45`, the absorption maximum (in ClC(Cl)Cl) was 427 nm.

For the molecule `C=CCNc1ccc2ccc3oc4cc(=[N+]5CCCC5)ccc-4nc3c2c1`, the absorption maximum runs as follows: (in CC#N) 576 nm; (in CCO) 570 nm; (in ClCCl) 588 nm; (in O) 556 nm.

For `CC1(C)CC(=O)c2ccccc2N1`, the absorption maximum (in CCO) came out at 383 nm.

Turning to `CC(C)(C)c1ccc2c(c1)c1cc(C(C)(C)C)ccc1n2-c1cccs1`, for the setting “in ClCCl”, the absorption maximum is given as 340 nm.

`O=C(O)c1ccc(-c2nc(-c3ccccc3)c(-c3ccccc3)[nH]2)cc1`: for the setting “in CO”, the absorption maximum was found to be 312 nm.

`CC(C)[Si](C#Cc1c2nc3c(nc2c(C#C[Si](C(C)C)(C(C)C)C(C)C)c2nc4ccccc4nc12)C1c2ccccc2C3c2ccccc21)(C(C)C)C(C)C` came in with an absorption maximum (in CCCCCC) of 551 nm.

Take `CCCCn1cc(/C=C/c2cc(=O)oc3cc(C)ccc23)c2ccccc21`: the absorption maximum is, setting by setting: (in CS(C)=O) 414 nm; (in ClC(Cl)Cl) 398 nm.

Take `O=[N+]([O-])c1ccc(/C=C/c2cn(S(=O)(=O)c3ccccc3)c3ccccc23)cc1`: the absorption maximum was 369 nm (in CC#N), 357 nm (in CCCCCCC), 367 nm (in CO) and 378 nm (in O).

Take `CN(C)c1ccc(N2c3c(sc4ccccc34)Sc3sc4ccccc4c32)cc1`: under “in ClCCl”, the absorption maximum is 309 nm.

Under “in CO”, `C1=CN2C[n+]3cccc(OCc4ccccc4)c3N=C2C(OCc2ccccc2)=C1` had an absorption maximum of 450 nm.

For the molecule `COc1ccc(-c2ncccn2)cc1`, the absorption maximum (in ClCCl) was determined as 283 nm.

Under “in ClCCl”, `CC(C)(C)c1ccc(C#Cc2c(C#Cc3ccc(C(C)(C)C)cc3)c3cccc4c(C#Cc5ccc(C(C)(C)C)cc5)c(C#Cc5ccc(C(C)(C)C)cc5)c5cccc2c5c34)cc1` came in with an absorption maximum of 410 nm.

With `CCN(CC)c1ccc2cc(/C=C(\C#N)c3nc4ccccc4o3)c(=O)oc2c1`, the absorption maximum (in C1COCCO1) was found to be 497 nm; the absorption maximum (in CC#N) stood at 510 nm; the absorption maximum (in CCO) is given as 516 nm; the absorption maximum (in CCOC(C)=O) turned out to be 506 nm; the absorption maximum (in CN(C)C=O) worked out at 529 nm; the absorption maximum (in CO) was determined as 509 nm. Further, the absorption maximum turned out to be 519 nm (in CS(C)=O), 500 nm (in Cc1ccccc1) and 511 nm (in ClCCl).

Under “in ClCCl”, `C(=C\c1nc(/C=C/c2ccccc2)nc(/C=C/c2ccccc2)n1)/c1ccccc1` had an absorption maximum of 327 nm.

Where the note is “in C1CCCCC1”, `C1=Cc2ccc3ccccc3c2NB1c1ccccc1` showed an absorption maximum of 360 nm.

On to `CCN(CC)c1ccc(C2=C3C(C)=CC(C)=[N+]3[B-](F)(F)n3c(C)cc(C)c32)cc1`, for which, for the setting “in CO”, the absorption maximum worked out at 500 nm.

`c1cc(-n2c3ccccc3c3ccccc32)c(-c2nc3ccccn3n2)c(-n2c3ccccc3c3ccccc32)c1` yielded an absorption maximum (in Cc1ccccc1) of 338 nm.

`O=Cc1ccc(-c2ccc(O)c(-c3nc4ccccc4s3)c2)o1` registered an absorption maximum (in CCO) of 341 nm.

On to `CN(C)c1ccc(C2=Cc3cc(Cl)nc[n+]3[B-](F)(F)O2)cc1`, for which the absorption maximum worked out at 451 nm (in C1CCOC1); 452 nm (in CC#N); 444 nm (in CCCCCC); 453 nm (in Cc1ccccc1); 460 nm (in ClC(Cl)Cl); 459 nm (in ClCCl).

On to `CC(C)(C)c1ccc2c(c1)c1cc(C(C)(C)C)ccc1n2-c1ccc(C#Cc2ccc3c4ccc(C#Cc5ccc(C=O)cc5)cc4n(-c4ccc(C(F)(F)F)cc4)c3c2)cc1`, for which the absorption maximum (in ClCCl) is given as 377 nm.

On to `CC[n+]1nc2ccc(N(C)C)cc2c2cc(C)ccc21`, for which the absorption maximum (in O) is recorded as 483 nm.

Turning to `FC(F)(F)c1ccc(B2c3ccccc3Nc3ccccc32)c(C(F)(F)F)c1`, under “in ClCCl”, the absorption maximum turned out to be 388 nm.

On to `COc1cccc(OC)c1-c1c2ccc(=[N+]3CCNCC3)cc-2oc2cc(N3CCNCC3)ccc12`, for which the absorption maximum was determined as 561 nm (in CCO) and 542 nm (in O).

Take `C(=C\c1c2ccccc2cc2ccccc12)/c1ccc2ccccc2c1`: the absorption maximum runs as follows: (in CC1CCCCC1) 386 nm; (in CC#N) 387 nm.

In turn, `Cc1ccsc1-c1ccc(-c2ccc(-c3sccc3C)s2)s1` had an absorption maximum (in CCCCCCCCCCCCCC) of 382 nm.

`CC1=c2ccccc2=[N+]2C1=Cc1c3ccccc3c(-c3[nH]c4ccccc4c3C)n1[B-]2(F)F` showed an absorption maximum (in ClCCl) of 611 nm.

Under “in C1CCOC1”, `CCC1(CC)c2ccccc2-c2c1c1c(c3c2C(CC)(CC)c2cc(-c4cccs4)ccc2-3)C(CC)(CC)c2cc(N(c3ccccc3)c3ccccc3)ccc2-1` gave an absorption maximum of 355 nm.

In the case of `COc1ccc(-c2cc3c(s2)=CC2=C(C(F)(F)F)c4cc5sc(-c6ccc(OC)cc6)cc5n4[B-](F)(F)[N+]=32)cc1`, the absorption maximum is recorded as 730 nm (in C1CCOC1) and 731 nm (in ClC(Cl)Cl).

Where the note is “in CCO”, `O=C(Cc1ccccc1)OCc1ccc2c3cccc4cccc(c5cccc1c52)c43` returned an absorption maximum of 438 nm.

`Cc1cccc(-c2c3ccccc3cc3ccccc23)n1` registered an absorption maximum (in ClCCl) of 385 nm.

With `COC(=O)c1cc(=O)n(Cc2ccccc2)c2cc(-c3ccc(N(C)C)cc3)sc12`, the absorption maximum reads like this: (in CC#N) 432 nm; (in ClCCl) 436 nm.

Where the note is “in ClCCl”, `c1ccc(N(c2ccccc2)c2ccc(N(c3ccccc3)c3ccc4ccc5c(N(c6ccccc6)c6ccc(N(c7ccccc7)c7ccccc7)cc6)ccc6ccc3c4c65)cc2)cc1` showed an absorption maximum of 438 nm.

`c1ccc(N(c2ccccc2)c2ccc3c(c2)-c2ccccc2C32c3ccccc3-n3c4ccccc4c4cccc2c43)cc1` (stereo unspecified): the absorption maximum (in ClCCl) was found to be 354 nm.

As to `O=C1NC(=O)/C(=C\c2ccccc2O)S1`, the absorption maximum is, setting by setting: (in C1CCCCC1) 347 nm; (in C1COCCO1) 350 nm; (in CC#N) 348 nm; (in CN(C)C=O) 353 nm; (in CO) 352 nm; (in O) 351 nm. Also, the absorption maximum (in OCC(O)CO) is listed as 364 nm and the absorption maximum (in OCCO) came out at 360 nm.

`CC(C)(C)c1ccc(-c2cnc3cccc(-c4ccccc4)n23)cc1` registered an absorption maximum (in ClCCl) of 339 nm.
